The assay addresses T1, human GLP-1R (Homo sapiens, UniProt P43220).
T1 construct: expressed in transfected cells; host or cells: PEAK RAPID-derived Gα15-trans48 LD stably expressing cells (PRG48), transiently transfected with Lipofectamine 2000
As to the kind of experiment: GLP-1 receptor in vitro calcium assay (intracellular free calcium concentration change induced via GLP-1 receptor). The format is cell-based. The note with it: for EC50: PRG48 cells transfected with human GLP-1R, compound added with 250 pM GLP-1, Ca2+ response ΔF/F, read-out: Ca EC50 value; for GLP-1 receptor action enhancing activity (vs BETP): intensity compared to BETP, activity of BETP as 1. The protocol:
The supernatant was removed by centrifugation (1,200 rpm, 3 min), and the cells were suspended at 4×10^6 cells/mL in 5% FBS DMEM/Ham's F-12. 1.0 mL thereof was seeded in a 15 cm dish and cultured (37° C., 5% CO2) overnight. The next day, the medium of the cultured PRG48 cells was replaced with 5% FBS DMEM/Ham's F-12 medium (30 mL), human GLP-1R gene mixture solution (GLP-1R/pc.DNA3.1(+) 60 μg) prepared using 6.0 mL of Opti-MEM (invitrogen) and 120 μL of Lipofectamin 2000 (invitrogen) was slowly added to the cells, and cultured (37° C., 5% CO2) for 6 hr to introduce the gene. […] The cells were counted, suspended at 0.5×10^6 cells/mL in 5% FBS DMEM/Ham's F-12 medium, and seeded in each well of D-Lysine coat 96 well plate (BD Bioscience) at 7.0×10^4 cells. After static adhesion at room temperature for 1 hr, the cells were cultured overnight (37° C., 5% CO2). The medium in the Cultured 96 well was entirely discarded, 150 μL of intracellular calcium measurement staining solution Calcium assay kit Express (Molecular Device) diluted 80-fold with Assay buffer (20 mM HEPES, 146 mM NaCl, 1 mM MgSO4, 1.39 mM glucose, 1 mM CaCl2, 2.5 mM Probenecid, 0.05% Casein Enzymatic Hydrolysate) was added, and the mixture was stood at 37° C. for 30 min, and then at room temperature for 45 min to perform staining. After staining, 250 pM GLP-1 and the compound were added and Ca^2+ response was observed by using FDSSμCELL (Hamamatsu Photonics K.K.). Each evaluation compound was dissolved in DMSO, further diluted with Assay buffer and used.
For evaluation, the fluorescence values (Ex480:Em540) before and after addition were measured, and changes in the intracellular free calcium concentration produced via GLP-1R receptor by the addition were quantitatively examined. For the measurement and analysis of the fluorescence values, a soft (FDSS7000EX) attached to the FDSSμCELL was used, and ΔF/F value ((maximum fluorescence value after stimulation−minimum fluorescence value after stimulation)/fluorescence value before stimulation) was calculated. Using the obtained ΔF/F values, EC50 value was calculated by Prism5.

36 molecules from patent publication US20190022039A1, “COMPOUND HAVING ENHANCING ACTIVITY FOR GLUCAGON-LIKE PEPTIDE-1 RECEPTOR ACTIONS” (AJINOMOTO CO., INC., priority 2016, published 2019) can be followed below.

Structures are written as SMILES.

T1 sequence (P43220 24-463): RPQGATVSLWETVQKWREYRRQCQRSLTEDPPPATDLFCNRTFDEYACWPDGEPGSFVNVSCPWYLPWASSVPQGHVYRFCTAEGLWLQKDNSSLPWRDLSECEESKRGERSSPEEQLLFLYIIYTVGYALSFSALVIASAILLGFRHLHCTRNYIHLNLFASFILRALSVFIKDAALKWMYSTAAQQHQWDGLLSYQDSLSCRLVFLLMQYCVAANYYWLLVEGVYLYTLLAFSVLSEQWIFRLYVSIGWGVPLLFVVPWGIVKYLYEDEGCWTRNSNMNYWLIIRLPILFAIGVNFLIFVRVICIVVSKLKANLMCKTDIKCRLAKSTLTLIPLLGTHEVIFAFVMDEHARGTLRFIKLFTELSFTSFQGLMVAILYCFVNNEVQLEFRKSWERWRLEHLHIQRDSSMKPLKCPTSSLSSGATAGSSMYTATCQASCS

Usually EC50 stands for the concentration giving half of the maximal effect. As to `Cc1ccc(S(=O)(=O)Nc2cccc(NC(=O)N[C@@H](Cc3ccccc3)C(=O)OC(C)(C)C)c2)cc1` [Compound 79], the EC50 came to 1500 nM and the “GLP-1 receptor action enhancing activity (vs BETP)” value turned out to be 17.
With `CCCOc1ccc(-c2noc([C@H](Cc3ccccc3)NC(=O)Nc3ccc(NS(=O)(=O)c4ccc(C)cc4)cc3)n2)cc1` [Compound 69], the EC50 came out at 24 nM and the “GLP-1 receptor action enhancing activity (vs BETP)” value was 1068.
With `CCCCC(CC)CNC(=O)[C@@H](Cc1ccc(Cl)cc1)NC(=O)Nc1ccc(NS(=O)(=O)c2ccc(C)cc2)cc1` (some centres unmarked) [Compound 39], the EC50 came out at 23 nM.
`CCCCCCNC(=O)[C@@H](CC1CCCCC1)NC(=O)Nc1ccc(NS(=O)(=O)c2ccc(C)cc2)cc1` [Compound 18]: the EC50 worked out at 360 nM and the “GLP-1 receptor action enhancing activity (vs BETP)” value amounted to 71.
Taken in the same sequence, the figures for `Cc1ccc(S(=O)(=O)Nc2ccc(NC(=O)N[C@H](Cc3ccccc3)c3nc(C(C)(C)C)no3)cc2)cc1` [Compound 70] were 1300 nM and 20.
For the molecule `CCCCCCCCNC(=O)[C@H](Cc1ccc(Cl)cc1)NC(=O)Nc1ccc(NS(=O)(=O)c2ccc(C(C)(C)C)cc2)cc1` [Compound 59], the EC50 was determined as 5.7 nM.
With `CCCCCCNC(=O)[C@@H](Cc1ccccc1)NC(=O)Nc1ccc(NS(=O)(=O)c2ccc(C)cc2)cc1` [Compound 2], the EC50 amounted to 680 nM and the “GLP-1 receptor action enhancing activity (vs BETP)” value worked out at 37.
Consider `CCCCCCNc1ccc(S(=O)(=O)Nc2cccc(NC(=O)N[C@H](CC3CCCCC3)C(=O)NCC(CC)CCCC)c2)cn1` (some centres unmarked) [Compound 114], for which the EC50 amounted to 30 nM and the “GLP-1 receptor action enhancing activity (vs BETP)” value was found to be 850.
With `CCCCCCCN(C(=O)N[C@H](Cc1ccccc1)C(=O)OC(C)(C)C)c1ccc(NS(=O)(=O)c2ccc(C)cc2)cc1` [Compound 85, tert-butyl (2R)-2-({heptyl-[4-(p-tolylsulfonylamino)phenyl]carbamoyl}amino)-3-phenyl-propanoate], the EC50 came to 7 nM and the “GLP-1 receptor action enhancing activity (vs BETP)” value was 3578.
Turning to `CC(C)CCCC(C)NC(=O)[C@@H](Cc1cccnc1)NC(=O)Nc1ccc(NS(=O)(=O)c2ccc(C(C)(C)C)cc2)cc1` (some centres unmarked) [Compound 102], the half-maximal effective concentration (EC50) turned out to be 130 nM and the “GLP-1 receptor action enhancing activity (vs BETP)” value turned out to be 193.
Take `Cc1ccc(S(=O)(=O)Nc2ccc(NC(=O)N[C@H](Cc3ccccc3)C(=O)NCC#N)cc2)cc1` [Compound 7]: the EC50 stood at 50 nM and the “GLP-1 receptor action enhancing activity (vs BETP)” value was 505.
In the same order, the values of `Cc1ccc(S(=O)(=O)Nc2ccc(NC(=O)N[C@H](CC(C)C)C(=O)NC3CCCCCC3)cc2)cc1` [Compound 44] are 1300 nM and 19.
`Cc1ccc(S(=O)(=O)Nc2ccc(NC(=O)N[C@H](CC(C)C)C(=O)N[C@H](Cc3ccccc3)c3nc(C(C)(C)C)no3)cc2)cc1` [Compound 89]: the EC50 was 260 nM and the “GLP-1 receptor action enhancing activity (vs BETP)” value is 98.
With `Cc1ccc(S(=O)(=O)Nc2ccc(NC(=O)N[C@H](Cc3ccc(Cl)cc3)C(=O)NCCC3CCCCC3)cc2)cc1` [Compound 46], the EC50 came out at 16 nM.
Take `Cc1ccc(S(=O)(=O)Nc2ccc(NC(=O)N[C@H](Cc3ccccc3)C(=O)NC3CCCCCC3)cc2)cc1` [Compound 23]: the EC50 worked out at 370 nM and the “GLP-1 receptor action enhancing activity (vs BETP)” value came out at 68.
Consider `Cc1ccc(S(=O)(=O)Nc2ccc(NC(=O)N[C@H](CC3CCCCC3)C(=O)NC3CCCCCC3)cc2)cc1` [Compound 41], for which the EC50 came out at 76 nM and the “GLP-1 receptor action enhancing activity (vs BETP)” value was found to be 333.
`CCCCCNC(=O)[C@@H](Cc1ccccc1)NC(=O)Nc1ccc(NS(=O)(=O)c2ccc(C)cc2)cc1` [Compound 35]: the EC50 came to 660 nM and the “GLP-1 receptor action enhancing activity (vs BETP)” value is given as 38.
Turning to `Cc1ccc(S(=O)(=O)Nc2ccc(NC(=O)N[C@@H](Cc3ccccc3)C(=O)OC(C)(C)C)cc2)cc1` [Compound 63], the EC50 worked out at 1900 nM and the “GLP-1 receptor action enhancing activity (vs BETP)” value was found to be 13.
As for `CCCCCCNC(=O)[C@@H](CC1CCCCC1)NC(=O)Nc1cccc(NS(=O)(=O)c2ccc(C(C)(C)C)cc2)c1` [Compound 93], the EC50 was 45 nM and the “GLP-1 receptor action enhancing activity (vs BETP)” value came out at 555.
For the molecule `Cc1ccc(S(=O)(=O)Nc2ccc(NC(=O)N[C@H](Cc3ccccc3)C(=O)NCC3CCCC3)cc2)cc1` [Compound 27], the EC50 was found to be 1100 nM and the “GLP-1 receptor action enhancing activity (vs BETP)” value came to 23.
For `Cc1ccc(S(=O)(=O)Nc2ccc(NC(=O)N[C@H](Cc3ccccc3)C(=O)NC3CCCCCCC3)cc2)cc1` [Compound 52], the EC50 was 170 nM and the “GLP-1 receptor action enhancing activity (vs BETP)” value amounted to 144.
With `CCCCC(CC)CNC(=O)[C@@H](CC1CCCCC1)NC(=O)N(CC(=O)O)c1ccc(NS(=O)(=O)c2ccc(C(C)(C)C)cc2)cc1` (some centres unmarked) [Compound 101], the EC50 worked out at 20 nM and the “GLP-1 receptor action enhancing activity (vs BETP)” value was determined as 1272.
On to `CCCCC(CC)CNC(=O)[C@@H](Cc1c[nH]c2ccccc12)NC(=O)Nc1ccc(NS(=O)(=O)c2ccc(C)cc2)cc1` (some centres unmarked) [Compound 40], for which the EC50 stood at 130 nM and the “GLP-1 receptor action enhancing activity (vs BETP)” value is listed as 199.
Regarding `CCCC[C@@H](NC(=O)[C@@H](Cc1ccccc1)NC(=O)Nc1ccc(NS(=O)(=O)c2ccc(C)cc2)cc1)C(=O)OC` [Compound 33], the 50% effective concentration (EC50) was determined as 1500 nM and the “GLP-1 receptor action enhancing activity (vs BETP)” value was 17.
In the same order, the values of `Cc1ccc(S(=O)(=O)Nc2ccc(NC(=O)N[C@H](CC(C)C)C(=O)NCC3CCCCC3)cc2)cc1` [Compound 29] are 940 nM and 27.
As to `CCCCC(CC)CNC(=O)[C@@H](Cc1ccccc1)NC(=O)Nc1ccc(NS(=O)(=O)c2ccc(C)cc2)cc1` (some centres unmarked) [Compound 34], the EC50 was found to be 64 nM and the “GLP-1 receptor action enhancing activity (vs BETP)” value was 391.
Taken in the same sequence, the figures for `Cc1ccc(S(=O)(=O)Nc2ccc(NC(=O)N[C@H](Cc3ccccc3)C(=O)OC(C)(C)C)cc2F)cc1` [Compound 87, tert-butyl (2R)-2-{[3-fluoro-4-(p-tolylsulfonylamino)phenyl]carbamoylamino}-3-phenyl-propanoate] were 1100 nM and 23.
With `CCCc1ccc(S(=O)(=O)Nc2ccc(NC(=O)N[C@@H](Cc3ccccc3)C(=O)OC(C)(C)C)cc2)cc1` [Compound 71], the EC50 turned out to be 400 nM and the “GLP-1 receptor action enhancing activity (vs BETP)” value was found to be 64.
In the case of `Cc1ccc(S(=O)(=O)Nc2ccc(NC(=O)N[C@H](Cc3ccccc3)C(=O)NCCc3ccccc3)cc2)cc1` [Compound 13], the EC50 is 1700 nM and the “GLP-1 receptor action enhancing activity (vs BETP)” value is listed as 15.
On to `Cc1ccc(S(=O)(=O)Nc2ccc(NC(=O)N[C@@H](Cc3ccc(OC(C)(C)C)cc3)C(=O)OC(C)(C)C)cc2)cc1` [Compound 66], for which the EC50 turned out to be 740 nM and the “GLP-1 receptor action enhancing activity (vs BETP)” value was 34.
Taken in the same sequence, the figures for `CCCCC(CC)CNC(=O)[C@@H](CC(C)C)NC(=O)Nc1ccc(NS(=O)(=O)c2ccc(C)cc2)cc1` (some centres unmarked) [Compound 37] were 180 nM and 140.
In the case of `CCC(CC)CNC(=O)[C@@H](CC(C)C)NC(=O)Nc1ccc(NS(=O)(=O)c2ccc(C)cc2)cc1` [Compound 30], the EC50 turned out to be 1200 nM and the “GLP-1 receptor action enhancing activity (vs BETP)” value came out at 21.
In the same order, the values of `Cc1ccc(S(=O)(=O)Nc2ccc(NC(=O)N[C@H](CC3CCCCC3)C(=O)NCCC3CCCCC3)cc2)cc1` [Compound 45] are 22 nM and 1149.
In the case of `CCCCCCNC(=O)[C@@H](Cc1ccc(Cl)cc1)NC(=O)Nc1ccc(NS(=O)(=O)c2ccc(C)cc2)cc1` [Compound 19], the EC50 is 160 nM.
Consider `CC[S+]([O-])c1nc(-c2cccc(OCc3ccccc3)c2)cc(C(F)(F)F)n1` (centres unmarked) [BETP, 4-(3-benzyloxyphenyl)-2-ethylsulfinyl-6-(trifluoromethyl)pyrimidine, reference compound], for which the EC50 worked out at 25000 nM and the “GLP-1 receptor action enhancing activity (vs BETP)” value amounted to 1.
In the same order, the values of `CC(C)(C)OC(=O)[C@H](Cc1ccccc1)NC(=O)Nc1ccc(NS(=O)(=O)c2ccc(C(F)(F)F)cc2)cc1` [Compound 81] are 1000 nM and 24.
